Results from the SangsterLogP compilation.

| SMILES | logP |
| --- | --- |
| CCCCCCCCCCCc1cccc(O)c1O | 6.3 |
| CCCCCc1cccc(O)c1 | 3.13 |
| CCCCCCCc1ccc(O)cc1 | 4.15 |
| CCCCCCCCCCCCCCCc1cccc(O)c1 | 10.1 |
| CCCCCCCCCCCCCc1ccc(O)cc1O | 6.84 |
| CCCCCCCCCc1ccccc1O | 5.76 |
| CCCCCCCCCCCCCCCc1ccc(O)c(O)c1 | 9.9 |
| CCCCCCCCCCCc1ccc(O)c(O)c1 | 6.94 |
| CCCCCCCCCCCc1ccc(O)cc1 | 7.18 |
| CCCCCCCCCCCCCc1ccccc1O | 8.61 |
| CCCCCCCCCCCCCCCc1ccccc1O | 10.1 |
| CCCCCCCc1ccccc1O | 4.45 |
| CCCCCCCCCc1ccc(O)cc1 | 5.76 |
| CCCCCCCCCCCc1ccccc1O | 7.17 |
| CCCCCCCCCCCCCc1ccc(O)cc1 | 8.2 |
| CCCCCCCCCCCCCc1cccc(O)c1 | 8.84 |
| CCCCCCCCCCCc1cccc(O)c1 | 6.98 |
| CCCCCCCCCCCCCc1cccc(O)c1O | 7.75 |
| CCCCCCCCCCCCCCCc1ccc(O)cc1O | 8.29 |
| CCCCCCCCCCCCc1ccc(O)cc1 | 7.91 |
| CCCCCCCc1cccc(O)c1O | 3.59 |
| CCCCCCCCCCCCCc1ccc(O)c(O)c1 | 8.42 |
| CCCCCCCCCc1ccc(O)c(O)c1 | 5.54 |
| CCCCCCCCCc1cccc(O)c1O | 4.86 |
| CCCCCCCCCc1cccc(O)c1 | 5.61 |
| CCCCCCCCCCCc1ccc(O)cc1O | 5.43 |
| CCCCCCCCCc1ccc(O)cc1O | 4.1 |
| CCCCCCCc1ccc(O)cc1O | 2.9 |
| CCCCCc1ccc(O)c(O)c1 | 3.13 |
| CCCCCCCCCCCCCCCc1cccc(O)c1O | 9.27 |
